In the supplement of paper PMC3493320:

What follows are compounds tested on NCI-H295R (assay: IC50 (antiproliferative, ATP content)). Conditions: 48 h.
Procedure, shortened: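 Serum-free ITS-supplemented DMEM was used to seed 1500 adrenocortical carcinoma cells per well in 1536-well plates, which were cultured overnight. Eight final concentrations of each library compound, from 0.6 nM to 46 µM, were added by pin transfer, followed by 48 h at 37 °C in 5% CO2 and a CellTiter-Glo ATP read after 20 min at room temperature. Luminescence was set against vehicle and positive-control wells, and the IC50 was obtained by logistic curve fitting. Any compound with no concentration response was entered as above the top dose.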
In the case of `OC[C@@H](O)[C@H](O)[C@H](O)[C@@H](O)CO`, the IC50 is reported as greater than 46 µM.
With `CCc1cc(C(N)=S)ccn1` the IC50 was greater than 46 µM.
`CC(C)C[C@@H](NC(=O)[C@@H](O)[C@H](N)Cc1ccccc1)C(=O)O.Cl` showed an IC50 greater than 46 µM.
`O=c1[nH]c(=O)n([C@H]2C[C@H](O)[C@@H](CO)O2)cc1I` showed an IC50 greater than 46 µM.
With `CCOC(=O)c1ncn2c1CN(C)C(=O)c1cc(F)ccc1-2` the IC50 was greater than 46 µM.
In the case of `Cc1c[nH]c2ccccc12`, the IC50 is reported as greater than 46 µM.
`Cc1oc(=O)oc1CN1CCN(c2cc3c(cc2F)c(=O)c(C(=O)O)c2n3C(C)S2)CC1` (stereo not drawn) was tested, and the IC50 was greater than 46 µM.
With `O=C(O)c1cc(-c2ccccc2)nc2ccccc12` the IC50 was greater than 46 µM.
In the case of `O=C1CCO1`, the IC50 is reported as greater than 46 µM.
Compound `N=C(N)NCc1cccc(I)c1.N=C(N)NCc1cccc(I)c1.O=S(=O)(O)O` has an IC50 greater than 46 µM.
`COc1cc(/C=C/C(=O)N2CCN(CC(=O)N3CCCC3)CC2)cc(OC)c1OC.O=C(O)/C=C\C(=O)O` gave an IC50 greater than 46 µM.
`Cl.NCCCC(N)(C(=O)O)C(F)F` (stereo not drawn) gave an IC50 greater than 46 µM.
For `CCOC(=O)OC(C)OC1=C(C(=O)Nc2ccccn2)N(C)S(=O)(=O)c2ccccc21` (stereo not drawn), the IC50 was greater than 46 µM.
Compound `CCc1c2c(nc3ccc(OC(=O)N4CCC(N5CCCCC5)CC4)cc13)-c1cc3c(c(=O)n1C2)COC(=O)[C@]3(O)CC.Cl` has an IC50 greater than 46 µM.
Compound `C[C@@H](Cc1ccccc1)N(C)C` has an IC50 greater than 46 µM.
`O=[C@](COC(C)=O)[C@](CC4)(O)[C@]2(C)[C@]4([H])[C@]1([H])CCC([C@@](C=C3)(C)[C@]([H])1[C@@H](O)C2)=CC3=O` showed an IC50 greater than 46 µM.
For `CCN1CCCC1=O`, the IC50 was greater than 46 µM.
`Cl.NC1C[C@H]1c1ccccc1` (stereo partly drawn) showed an IC50 greater than 46 µM.
Compound `Cc1cn([C@H]2C[C@H](F)[C@@H](CO)O2)c(=O)[nH]c1=O` has an IC50 greater than 46 µM.
`CCOC(=O)c1ccc(OC(=O)CCCCCNC(=N)[NH3+])cc1.CS(=O)(=O)[O-]` showed an IC50 greater than 46 µM.
`CN1C(=S)CN=C(c2ccccc2)c2cc(Cl)ccc21` gave an IC50 greater than 46 µM.
Work on `F[C@]1([C@](C[C@@H]4F)([H])[C@@]3([H])[C@]([C@@]([C@H](C)C3)(O)[C@@](CO)=O)(C)C[C@@H]1O)[C@](C=C2Cl)(C)C4=CC2=O.O` yielded an IC50 greater than 46 µM.
With `CC(C)COCC(CN(Cc1ccccc1)c1ccccc1)N1CCCC1` (stereo not drawn) the IC50 was greater than 46 µM.
Work on `Cc1nc(Nc2ncc(C(=O)Nc3c(C)cccc3Cl)s2)cc(N2CCN(CCO)CC2)n1` yielded an IC50 greater than 46 µM.
`CC(CN(C)C)CN1c2ccccc2CCc2ccccc21.O=C(O)/C=C\C(=O)O` (stereo not drawn) showed an IC50 greater than 46 µM.
`Cc1cc(-c2ccccc2)nnc1NCCN1CCOCC1.Cl.Cl` gave an IC50 greater than 46 µM.
For `O=C([O-])c1nc(O)nc(O)n1.[K+]`, the IC50 was greater than 46 µM.
For `C=C[C@]1(C)C[C@@H](OC(=O)CSC(C)(C)CNC(=O)[C@H](N)C(C)C)[C@]2(C)[C@H](C)CC[C@]3(CCC(=O)[C@H]32)[C@@H](C)[C@@H]1O`, the IC50 was greater than 46 µM.
`CNC(=O)c1c(I)c(C(=O)NCC(=O)Nc2c(I)c(C(=O)O)c(I)c(C(=O)NCCO)c2I)c(I)c(N(C)C(C)=O)c1I` showed an IC50 greater than 46 µM.
Work on `CN1CCN(C2=Nc3cc(Cl)ccc3Nc3ccccc32)CC1` yielded an IC50 greater than 46 µM.
`CC(=O)Nc1nnc(S(N)(=O)=O)s1` showed an IC50 greater than 46 µM.
For `CC(=O)c1ccc(S(=O)(=O)NC(=O)NC2CCCCC2)cc1`, the IC50 was greater than 46 µM.
Compound `Nc1ccc(S(=O)(=O)Nc2ccccn2)cc1` has an IC50 greater than 46 µM.
Work on `CC[N+](CC)(CC)CCOc1ccc(/C=C/c2ccccc2)cc1.[I-]` yielded an IC50 greater than 46 µM.
In the case of `CC1(C)CCC(C)(C)c2cc(NC(=O)c3ccc(C(=O)O)cc3)ccc21`, the IC50 is reported as greater than 46 µM.
For `CC1(C)OC(=O)NC1=O`, the IC50 was greater than 46 µM.
Compound `COc1cc2nc(N(C)CCCNC(=O)C3CCCO3)nc(N)c2cc1OC.Cl` (stereo not drawn) has an IC50 greater than 46 µM.
`CC[N+]1(C)CCCC(OC(=O)C(O)(c2ccccc2)c2ccccc2)C1.[Br-]` (stereo not drawn) gave an IC50 greater than 46 µM.
For `O=[C@](CO)[C@@H]2[C@](CC1)(C)[C@](CC2)([H])[C@@](CC4)([H])[C@@]1([H])[C@](CC3)(C)C4=CC3=O`, the IC50 was greater than 46 µM.
`Cl.NNc1nncc2ccccc12` gave an IC50 greater than 46 µM.
In the case of `CN1C(=O)COc2c(C(=O)NC3CN4CCC3CC4)cc(Cl)cc21` (stereo not drawn), the IC50 is reported as greater than 46 µM.
In the case of `CCN(CC)CCOC(=O)C1(c2ccccc2)CCCC1.CCN(CC)CCOC(=O)C1(c2ccccc2)CCCC1.O=S(=O)(O)CCS(=O)(=O)O`, the IC50 is reported as greater than 46 µM.
For `CN(C)c1nc(N(C)C)nc(N(C)C)n1`, the IC50 was greater than 46 µM.
`C=CCc1ccc(O)c(OC)c1` gave an IC50 greater than 46 µM.
`C=Cc1ccc(S(=O)(=O)[O-])cc1.[Na+]` was tested, and the IC50 was greater than 46 µM.
With `CC(=O)[O][Al]([OH])[O]C(C)=O` the IC50 was greater than 46 µM.
`N#CC1(N2CCCCC2)CCCCC1` showed an IC50 greater than 46 µM.
`CCCCCCCCCCOCC(O)CN.Cl` (stereo not drawn) was tested, and the IC50 was greater than 46 µM.
For `[O]=[Cd]`, the IC50 was greater than 46 µM.
`CC1COc2c(N3CCN(C)CC3)c(F)cc3c(=O)c(C(=O)O)cn1c23` (stereo not drawn) was tested, and the IC50 was greater than 46 µM.
`O=C(SC[C@@H](C(N(C3)[C@@H](C[C@@H]3SC2=CC=CC=C2)[C@@](O)=O)=O)C)C1=CC=CC=C1` showed an IC50 greater than 46 µM.
Compound `Cn1cnc2c1c(=O)[nH]c(=O)n2C` has an IC50 greater than 46 µM.
With `O=C5O[C@]4(CC5)[C@@]3(C)C[C@@H]6[C@]([C@@]([C@@]([H])3CC4)([H])[C@H]([C@@](OC)=O)C2)(O6)[C@@](C2=C1)(C)CCC1=O` the IC50 was greater than 46 µM.
`CN1CCCN=C1COC(=O)C(O)(c1ccccc1)C1CCCCC1.Cl` (stereo not drawn) showed an IC50 greater than 46 µM.
Compound `O=C1Cc2cc(CCN3CCN(c4nsc5ccccc45)CC3)c(Cl)cc2N1` has an IC50 greater than 46 µM.
`N=C(N)NN=Cc1c(Cl)cccc1Cl` showed an IC50 greater than 46 µM.
`CC(C)NC(=N)NC(=N)Nc1ccc(Cl)cc1.Cl` showed an IC50 greater than 46 µM.
Compound `O=C(O)C(Cc1cc(I)c(O)c(I)c1)c1ccccc1` (stereo not drawn) has an IC50 greater than 46 µM.
Compound `CN1C[C@@H](NS(=O)(=O)N(C)C)C[C@@H]2c3cccc4c3c(cn4C)C[C@H]21` has an IC50 greater than 46 µM.
With `O=C([O-])Cc1ccccc1Nc1c(Cl)cccc1Cl.[Na+]` the IC50 was greater than 46 µM.
`CCCCC1(COC(=O)CCC(=O)O)C(=O)N(c2ccccc2)N(c2ccccc2)C1=O` showed an IC50 greater than 46 µM.
`Cc1onc(-c2ccccc2)c1-c1ccc(S(N)(=O)=O)cc1` showed an IC50 greater than 46 µM.
`Nc1ccc(C(=O)[O-])c(O)c1.[Na+]` gave an IC50 greater than 46 µM.
`CCOC(=O)n1ccn(C)c1=S` gave an IC50 greater than 46 µM.
Compound `NC12CC3CC(CC(C3)C1)C2` has an IC50 greater than 46 µM.
In the case of `CC(C)Oc1ccc2c(=O)c(-c3ccccc3)coc2c1`, the IC50 is reported as greater than 46 µM.
`CC1=C[C@H](O)CC(C)(C)[C@H]1/C=C/C(C)=C/C=C/C(C)=C/C=C/C=C(C)/C=C/C=C(C)/C=C/C1=C(C)C[C@@H](O)CC1(C)C` showed an IC50 greater than 46 µM.
Compound `CN[C@@H]1[C@@H](O[C@H]2O[C@H](CO)[C@@H](N)[C@H](O)[C@H]2O)O[C@H]2C[C@@H](N)[C@@H](O[C@H]3[C@H](O)[C@@H](O)[C@H](N)C[C@@H]3N)O[C@@H]2[C@@H]1O` has an IC50 greater than 46 µM.
`CCCCCCCCCC(=O)O[C@H]2CC[C@H]3[C@@H]4CC\C1=C\C(=O)CC[C@@H]1[C@H]4CC[C@]23C` gave an IC50 greater than 46 µM.
Compound `Cc1ncc(C[n+]2csc(CCOP(=O)(O)OP(=O)(O)O)c2C)c(N)n1.[Cl-]` has an IC50 greater than 46 µM.
`CC[C@@H](C)[C@H](N)C(=O)O` was tested, and the IC50 was greater than 46 µM.
`CC(C)(C)CC(C)(C)c1cc(Cc2cc(C(C)(C)CC(C)(C)C)cc(-n3nc4ccccc4n3)c2O)c(O)c(-n2nc3ccccc3n2)c1` gave an IC50 greater than 46 µM.
With `COc1cc2nc(N3CCN(C(=O)C4CCCO4)CC3)nc(N)c2cc1OC.Cl` (stereo not drawn) the IC50 was greater than 46 µM.
`C(N3C2)(SCC3)=N[C@H]2[C@@]1=CC=CC=C1.Cl` gave an IC50 greater than 46 µM.
`CS(=O)(=O)O.CS(=O)(=O)O.N=C(N)c1ccc(/C=C/c2ccc(C(=N)N)cc2O)cc1` gave an IC50 greater than 46 µM.
`Nc1nc2c(ncn2COC(CO)CO)c(=O)[nH]1` gave an IC50 greater than 46 µM.
Compound `CC(O)CN(CCN(CC(C)O)CC(C)O)CC(C)O` (stereo not drawn) has an IC50 greater than 46 µM.
For `Cl.O=c1n(CCCN2CCN(c3cccc(Cl)c3)CC2)nc2ccccn12`, the IC50 was greater than 46 µM.
With `CNC(C)(C)Cc1ccccc1.CNC(C)(C)Cc1ccccc1.O=S(=O)(O)O` the IC50 was greater than 46 µM.
`OC[C@H]1OC([S][Au])[C@H](O)[C@@H](O)[C@@H]1O` (stereo partly drawn) gave an IC50 greater than 46 µM.
With `O=C1C=CC([C@](N)2CC(C)=C3)=C(C[C@H]3/[C@]2=C\C)N1` the IC50 was greater than 46 µM.
With `CO[C@@]1(NC(=O)C(C(=O)[O-])c2ccc(O)cc2)C(=O)N2C(C(=O)[O-])=C(CSc3nnnn3C)CO[C@@H]21.[Na+].[Na+]` (stereo partly drawn) the IC50 was greater than 46 µM.
For `C[C@@]1(CC2)[C@H](OC(C)=O)C[C@H]2[C@](C)1C`, the IC50 was greater than 46 µM.
Compound `Nc1ccccc1C(=O)O` has an IC50 greater than 46 µM.
For `COC(=O)[C@H](Cc1ccccc1)NC(=O)[C@@H](N)CC(=O)O`, the IC50 was greater than 46 µM.
Compound `CC(=O)NC(=O)c1ccccc1O` has an IC50 greater than 46 µM.
`Nc1ccncc1N` showed an IC50 greater than 46 µM.
Compound `N[C@H](C(=O)O)c1ccc(O)cc1` has an IC50 greater than 46 µM.
With `Cc1nc2ccc(CN(C)c3ccc(C(=O)N[C@@H](CCC(=O)O)C(=O)O)s3)cc2c(=O)[nH]1` the IC50 was greater than 46 µM.
For `CCCCC[C@H](O)/C=C/[C@H]1[C@H](O)CC(=O)[C@@H]1C/C=C\CCCC(=O)O`, the IC50 was greater than 46 µM.
Work on `CCCCCCCCOC(=O)c1ccccc1C(=O)OCCCCCCCC` yielded an IC50 greater than 46 µM.
Compound `CN[C@@H](C)[C@@H]1CC[C@@H](N)[C@@H](O[C@H]2[C@H](O)[C@@H](O[C@H]3OC[C@](C)(O)[C@H](NC)[C@H]3O)[C@H](N)C[C@@H]2N)O1.O=S(=O)(O)O` has an IC50 greater than 46 µM.
For `O=C(O)COc1ccccc1/C=N/NC(=O)c1ccncc1`, the IC50 was greater than 46 µM.
Work on `CC[n+]1c(-c2ccccc2)c2cc(N)ccc2c2ccc(N)cc21.[Br-]` yielded an IC50 greater than 46 µM.
Compound `O=C2O[C@H](C)C/C=C/C=C/C=C/C=C/[C@H](O[C@@H]3O[C@H](C)[C@@H](O)[C@H](N)[C@@H]3O)C[C@]([C@H]([C@@](O)=O)[C@@H](O)C4)([H])O[C@]4(O)C[C@@H](O)C[C@@]1([H])O[C@@]([H])1/C=C/2` has an IC50 greater than 46 µM.
With `O=C(CCBr)N1CCN(C(=O)CCBr)CC1` the IC50 was greater than 46 µM.
In the case of `O=C1[C@H]([C@H](C)C)CC[C@@H](C)C1`, the IC50 is reported as greater than 46 µM.
For `F[C@]1([C@](C[C@@H]3C)([H])[C@@]4([H])[C@]([C@@](CC4)(O)[C@@](C)=O)(C)C[C@@H]1O)[C@](C=C2)(C)C3=CC2=O`, the IC50 was greater than 46 µM.
